Experimental data published in patent US20080207952A1, “NOVEL THERAPEUTIC APPLICATIONS OF NATURAL POLY ISOPRENYLATED BENZOPHENONE DERIVATIVES AS DRUGS/MEDICAMENTS” (priority 2003, published 2008).
Like-named read-outs stand apart in the source and are kept apart here.

Tests used:
[1] = tested on: Propionibacterium acnes ATCC 11827; experiment: Anti-microbial activity against Propionibacterium acnes (disk zone of inhibition on Reinforced Clostridial Agar); type: cell-based; conditions: 48 hours at 37° C., anaerobic
Description: Propionibacterium acnes was cultured in an anaerobic chamber (Coy Laboratory, USA with an automatic lock purge system). The growth standardization was ensured by culturing the organism in different culture media. The anaerobic conditions were ensured initially with Nitrogen gas and then a mixture of Nitrogen, Hydrogen and Carbon dioxide in a ratio of 80:10:10. A two gas tank arrangement was made wherein only Nitrogen was connected to the transfer chamber and the mixed gas to the main chamber using Gassing Manifold (Hrishi Biotech. Pune, India). The anaerobic media were prepared by heating the media while passing the mixture of gases Nitrogen and Carbon dioxide in a ratio of 4:1 simultaneously. A redox indicator reazurin=0.001% was added to the media. The indicator is colorless in an anaerobic environ and turns blue otherwise. It was dispensed to 30 ml, 20 ml and 10 ml vials sealed with rubber and aluminium clamps and sterilized by autoclaving at 121° C. for 15 minutes.
Propionibacterium acnes ATCC 11827 was sub cultured from broth cultures into vials containing fresh medium. The cultures were then incubated for 48 hours at 37° C. The optical density of the culture at 625 nm was maintained between 0.64 and 0.80 which corresponded to approximately 12×10^6 cells/ml (4.0 MC Mc Farland standard). The anti-microbial susceptibility testing was carried on Reinforced Clostridial Agar (RCA). 0.3 ml of P. acnes culture was inoculated into the culture plates. Culture plates were impregnated with disks comprising varying concentrations of the test naturally occuring poly isoprenylated benzophenone derivatives. The plates were incubated in anaerobic chambers at 37° C. for 48 hours. The test naturally occuring poly isoprenylated benzophenone derivatives were prepared with DMSO as vehicle. The controls included DMSO and Clindac A (Clindamycin Phosphate Gel 1% w/w). The zone of inhibition was measured and expressed in mm. (Table I)

COX-1 = target: T1, COX-1 (Ovis aries, UniProt P05979); experiment: COX inhibitor screening assay (Cayman, EIA), COX-1; type: biochemical; conditions: substrate Arachidonate, prostaglandins by EIA
T1 construct: purchased Cayman chemical company 560101
T1 sequence (P05979 25-600): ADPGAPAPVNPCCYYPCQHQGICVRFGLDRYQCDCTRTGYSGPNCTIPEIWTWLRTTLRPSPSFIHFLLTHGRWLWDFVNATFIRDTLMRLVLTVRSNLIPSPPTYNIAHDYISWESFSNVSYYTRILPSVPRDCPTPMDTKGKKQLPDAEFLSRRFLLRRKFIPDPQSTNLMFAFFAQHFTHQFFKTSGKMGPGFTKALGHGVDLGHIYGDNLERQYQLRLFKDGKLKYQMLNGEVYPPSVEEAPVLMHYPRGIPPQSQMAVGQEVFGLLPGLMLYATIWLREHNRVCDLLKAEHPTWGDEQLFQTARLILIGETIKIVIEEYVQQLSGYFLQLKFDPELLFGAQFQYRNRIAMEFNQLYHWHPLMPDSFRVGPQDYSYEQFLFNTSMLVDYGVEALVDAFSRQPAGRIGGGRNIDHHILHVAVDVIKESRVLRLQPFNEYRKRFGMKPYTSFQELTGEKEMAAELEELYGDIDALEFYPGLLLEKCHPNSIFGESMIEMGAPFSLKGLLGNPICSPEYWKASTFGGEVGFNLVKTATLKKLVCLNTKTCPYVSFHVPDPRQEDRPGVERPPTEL
Description: Principle: The COX inhibitor screening Assay was performed using the Cox inhibitory kit from Cayman chemical company (Catalog No. 560101) by Enzyme Immuno Assay method. Methodology: Enzyme (COX-1) is allowed to react on substrate Arachidonate in presence & absence of the inhibitor. The amount of prostaglandins (PGF2 ? ) produced by stannous chloride reduction of COX-derived PGFH2 are estimated by EIA (Cayman) using a broadly specific antibody that binds to all major prostaglandin compounds. The decrease in PGs released in presence of inhibitor is directly proportional to inhibition.

COX 2 = target: T2, COX 2 (Ovis aries, UniProt P79208); experiment: COX inhibitor screening assay (Cayman, EIA), COX-2; type: biochemical; conditions: prostaglandins by EIA
T2 construct: purchased Cayman chemical company 560101
T2 sequence (P79208 17-603): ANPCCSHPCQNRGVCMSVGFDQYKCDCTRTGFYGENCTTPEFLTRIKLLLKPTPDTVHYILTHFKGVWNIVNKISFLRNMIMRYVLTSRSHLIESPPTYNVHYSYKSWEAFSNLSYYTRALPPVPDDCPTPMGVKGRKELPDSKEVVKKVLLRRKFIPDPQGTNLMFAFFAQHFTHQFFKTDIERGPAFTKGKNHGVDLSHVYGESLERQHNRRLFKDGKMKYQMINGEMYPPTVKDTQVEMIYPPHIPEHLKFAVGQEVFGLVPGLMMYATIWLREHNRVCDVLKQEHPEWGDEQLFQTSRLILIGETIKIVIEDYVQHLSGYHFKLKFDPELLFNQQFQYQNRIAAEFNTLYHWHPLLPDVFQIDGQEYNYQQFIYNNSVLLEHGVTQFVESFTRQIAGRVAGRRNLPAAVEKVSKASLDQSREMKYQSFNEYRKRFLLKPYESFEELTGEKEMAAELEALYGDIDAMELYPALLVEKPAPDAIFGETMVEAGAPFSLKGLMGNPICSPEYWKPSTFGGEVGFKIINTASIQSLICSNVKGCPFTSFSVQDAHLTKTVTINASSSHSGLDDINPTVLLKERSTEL

[2] = target: T3, Elastase from Pig pancreas (Sus scrofa, UniProt P00772); experiment: Anti-elastase activity (EnzChek elastase assay kit); type: biochemical; conditions: read after 30 minutes
T3 construct: purchased; host or cells: pig pancreas
Description: Principle: The assays were done using the EnzChek elastase assay kit. The substrate is DQ elastin soluble bovine neck ligament. DQ elastin is labeled with BODIPY FL dye. The non-fluorescent substrate can be digested by elastase to yield highly fluorescent fragments and in the presence of inhibitor, the fluorescence intensity is quenched. The fluorescence intensity was measured in a microplate reader ([…].) Methodology: Varying concentrations of the test material were pre-incubated for 10 minutes with the substrate DQ […]. Elastase from Pig pancreas enzyme was then added and the fluorescence intensity was measured after 30 minutes (Em: 485 nm and Ex: 520 nm.).

T3 sequence (P00772 27-266): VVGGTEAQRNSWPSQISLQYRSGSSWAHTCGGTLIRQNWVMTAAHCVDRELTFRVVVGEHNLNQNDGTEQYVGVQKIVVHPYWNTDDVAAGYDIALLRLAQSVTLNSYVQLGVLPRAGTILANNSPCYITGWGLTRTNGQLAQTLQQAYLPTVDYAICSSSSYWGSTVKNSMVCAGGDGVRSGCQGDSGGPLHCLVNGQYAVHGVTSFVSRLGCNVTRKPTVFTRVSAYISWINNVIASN

Structure (SMILES) | Zone of Inhibition ([1]; Conc. of the sample 0.5%) [mm] | Zone of Inhibition ([1]; Conc. of the sample 1.0%) [mm] | Zone of Inhibition ([1]; Conc. of the sample 2.0%) [mm] | Zone of Inhibition ([1]; Conc. of the sample 5.0%) [mm] | IC50 (COX-1) [µM] | IC50 (COX 2) [µM] | Zone of Inhibition ([1]; Conc. of the sample 0.01%) [mm] | Zone of Inhibition ([1]; Conc. of the sample 0.03%) [mm] | Zone of Inhibition ([1]; Conc. of the sample 0.05%) [mm] | Zone of Inhibition ([1]; Conc. of the sample 0.1%) [mm] | Zone of Inhibition ([1]; Conc. of the sample 0.3%) [mm] | IC50 ([2]; Table III, read-out: IC50 (anti-elastase, sigmoidal dose response curve) (converted)) [µM] | IC50 ([2]; read-out: IC50 (anti-elastase) (converted)) [µM]
CC(C)=CC[C@H]1C[C@@]23C[C@@H](CC=C(C)C)C(C)(C)[C@@](CC=C(C)C)(C(=O)C(C(=O)c4ccc(O)c(O)c4)=C2OC1(C)C)C3=O [Cambogin 90%, Cambogin] | 0 | 0 | 0 | 0 |  |  |  |  |  |  |  |  | 
C=C(C)[C@@H](CC=C(C)C)C[C@@]12C[C@@H](CC=C(C)C)C(C)(C)[C@@](CC=C(C)C)(C(=O)C(C(=O)c3ccc(O)c(O)c3)=C1O)C2=O [Garcinol] | 16 | 18 | 19 | 20 | 144 | 36.5 | 7 | 8 | 10 | 11 | 14 | 496 | 498
